In US5840684A, “Glycopeptide antibiotic derivatives” (Eli Lilly and Company, priority 1995, dated 1998):
Converted amounts (≈) assume the structure as drawn.

Key:
[1] = tested on: Staphylococcus aureus S13E; assay type: cell-based
Protocol: (§1) The MIC's were determined using a standard broth micro-dilution assay.

[2] = tested on: Staphylococcus aureus SA1199B; assay type: cell-based
Protocol: as §1

[3] = tested on: Entercoccus faecium 180-1; assay: broth micro-dilution MIC; assay type: cell-based
Protocol: as §1

Entercoccus faecium 276 = assay: broth micro-dilution MIC; assay type: cell-based
Protocol: as §1

[4] = tested on: Staphylococcus aureus 446; assay: broth micro-dilution MIC; assay type: cell-based
Protocol: as §1

[5] = tested on: Staphylococcus aureus 447; assay: broth micro-dilution MIC; assay type: cell-based
Protocol: as §1

[6] = tested on: Staphylococcus aureus 489; assay: broth micro-dilution MIC; assay type: cell-based
Protocol: as §1

[7] = tested on: Staphylococcus aureus SA1199A; assay: broth micro-dilution MIC; assay type: cell-based
Protocol: as §1

[8] = tested on: Staphylococcus aureus SA1199; assay: broth micro-dilution MIC; assay type: cell-based
Protocol: as §1

[9] = tested on: Staphylococcus aureus X400; assay: broth micro-dilution MIC; assay type: cell-based
Protocol: as §1

[10] = tested on: Staphylococcus aureus X778; assay: broth micro-dilution MIC; assay type: cell-based
Protocol: as §1

[11] = tested on: Streptococcus pyogenes C203; assay: broth micro-dilution MIC; assay type: cell-based
Protocol: as §1

Entercoccus faecium 180 = assay: broth micro-dilution MIC; assay type: cell-based; conditions: Entercoccus faecium 180
Protocol: (§2) The formula I compounds have in vitro and in vivo activity against Gram-positive pathogenic bacteria. The MIC's were determined using a standard broth micro-dilution assay.

Entercoccus faecium 2041 = assay: broth micro-dilution MIC; assay type: cell-based; conditions: Entercoccus faecium 2041
Protocol: as §2

[12] = tested on: Enterococcus gallinarum 245; assay: broth micro-dilution MIC; assay type: cell-based; conditions: Enterococcus gallinarum 245
Protocol: as §2

[13] = tested on: Staphylococcus epidermidis 270; assay: broth micro-dilution MIC; assay type: cell-based
Protocol: as §2

[14] = tested on: Staphylococcus haemolyticus 105; assay: broth micro-dilution MIC; assay type: cell-based
Protocol: as §2

[15] = tested on: Staphylococcus haemolyticus 415; assay: broth micro-dilution MIC; assay type: cell-based
Protocol: as §2

[16] = tested on: Streptococcus pneumoniae P1; assay: broth micro-dilution MIC; assay type: cell-based
Protocol: as §2

[17] = tested on: vancomycin-resistant enterococci; assay: broth micro-dilution, mean geometric MIC; assay type: cell-based, Enterococcus faecium and Enterococcus faecalis; conditions: enterococci, 24-hour incubation
[18] = tested on: vancomycin-susceptible enterococci; assay: broth micro-dilution, mean geometric MIC; assay type: cell-based, Enterococcus faecium and Enterococcus faecalis; conditions: enterococci, 24-hour incubation

Row | SMILES | MIC [1] [µg/mL] | MIC [2] [µg/mL] | MIC [3] [µg/mL] | MIC (Entercoccus faecium 276) [µg/mL] | MIC [4] [µg/mL] | MIC [5] [µg/mL] | MIC [6] [µg/mL] | MIC [7] [µg/mL] | MIC [8] [µg/mL] | MIC [9] [µg/mL] | MIC [10] [µg/mL] | MIC [11] [µg/mL] | MIC (Entercoccus faecium 180) [µg/mL] | MIC (Entercoccus faecium 2041) [µg/mL] | MIC [12] [µg/mL] | MIC [13] [µg/mL] | MIC [14] [µg/mL] | MIC [15] [µg/mL] | MIC [16] [µg/mL] | mean geometric MIC, Vancomycin Resistant Strains [17] [µg/mL] | also measured
1 | CNC(CC(C)C)C(=O)NC1C(=O)NC(CC(N)=O)C(=O)NC2C(=O)NC3C(=O)NC(C(=O)NC(C(=O)O)c4cc(O)cc(O)c4-c4cc3ccc4O)C(OC3CC(C)(N)C(O)C(C)O3)c3ccc(c(Cl)c3)Oc3cc2cc(c3OC2OC(CO)C(O)C(O)C2OC2CC(C)(NCc3cccc(OC(C)=O)c3)C(O)C(C)O2)Oc2ccc(cc2Cl)C1O (centres unmarked) [Compound 77] | 0.125 (≈ 0.0718 µM) | 0.125 (≈ 0.0718 µM) | 0.125 (≈ 0.0718 µM) | 0.25 (≈ 0.144 µM) | ≤ 0.06 | 1 (≈ 0.575 µM) | ≤ 0.06 | ≤ 0.06 | ≤ 0.06 | ≤ 0.06 | ≤ 0.06 | ≤ 0.06 | 8 (≈ 4.6 µM) | 0.25 (≈ 0.144 µM) | 0.25 (≈ 0.144 µM) | 0.5 (≈ 0.287 µM) | 2 (≈ 1.15 µM) | 8 (≈ 4.6 µM) | ≤ 0.06 | – | –
2 | CNC(CC(C)C)C(=O)NC1C(=O)NC(CC(N)=O)C(=O)NC2C(=O)NC3C(=O)NC(C(=O)NC(C(=O)O)c4cc(O)cc(O)c4-c4cc3ccc4O)C(OC3CC(C)(N)C(O)C(C)O3)c3ccc(c(Cl)c3)Oc3cc2cc(c3OC2OC(CO)C(O)C(O)C2OC2CC(C)(NCc3ccc(Oc4ccc(OC)cc4)cc3)C(O)C(C)O2)Oc2ccc(cc2Cl)C1O (centres unmarked) [Compound 98] | 0.5 (≈ 0.277 µM) | 1 (≈ 0.554 µM) | ≤ 0.06 | 0.125 (≈ 0.0693 µM) | 0.5 (≈ 0.277 µM) | – | ≤ 0.06 | ≤ 0.06 | 0.5 (≈ 0.277 µM) | ≤ 0.06 | ≤ 0.06 | ≤ 0.06 | – | ≤ 0.06 | 1 (≈ 0.554 µM) | ≤ 0.06 | 1 (≈ 0.554 µM) | 1 (≈ 0.554 µM) | ≤ 0.06 | 2.4 | mean geometric MIC, Vancomycin Sensitive Strains [18]: 0.095 µg/mL
3 | CNC(CC(C)C)C(=O)NC1C(=O)NC(CC(N)=O)C(=O)NC2C(=O)NC3C(=O)NC(C(=O)NC(C(=O)O)c4cc(O)cc(O)c4-c4cc3ccc4O)C(OC3CC(C)(N)C(O)C(C)O3)c3ccc(c(Cl)c3)Oc3cc2cc(c3OC2OC(CO)C(O)C(O)C2OC2CC(C)(NCc3ccc(-c4ccccn4)cc3)C(O)C(C)O2)Oc2ccc(cc2Cl)C1O (centres unmarked) [Compound 137] | ≤ 0.06 | ≤ 0.06 | ≤ 0.06 | ≤ 0.06 | – | 4 (≈ 2.27 µM) | ≤ 0.06 | ≤ 0.06 | ≤ 0.06 | ≤ 0.06 | ≤ 0.06 | ≤ 0.06 | 0.125 (≈ 0.071 µM) | ≤ 0.06 | 8 (≈ 4.55 µM) | 0.5 (≈ 0.284 µM) | 2 (≈ 1.14 µM) | 8 (≈ 4.55 µM) | ≤ 0.06 | 6.7 | mean geometric MIC, Vancomycin Sensitive Strains [18]: 0.38 µg/mL
4 | CNC(CC(C)C)C(=O)NC1C(=O)NC(CC(N)=O)C(=O)NC2C(=O)NC3C(=O)NC(C(=O)NC(C(=O)O)c4cc(O)cc(O)c4-c4cc3ccc4O)C(OC3CC(C)(N)C(O)C(C)O3)c3ccc(c(Cl)c3)Oc3cc2cc(c3OC2OC(CO)C(O)C(O)C2OC2CC(C)(NCc3ccc(OC(C)=O)cc3)C(O)C(C)O2)Oc2ccc(cc2Cl)C1O (centres unmarked) [Compound 138] | ≤ 0.06 | 0.5 (≈ 0.287 µM) | ≤ 0.06 | ≤ 0.06 | – | 2 (≈ 1.15 µM) | ≤ 0.06 | ≤ 0.06 | ≤ 0.06 | ≤ 0.0606 | – | ≤ 0.06 | 4 (≈ 2.3 µM) | ≤ 0.06 | – | 2 (≈ 1.15 µM) | 4 (≈ 2.3 µM) | 8 (≈ 4.6 µM) | ≤ 0.06 | 38 | –
5 | CNC(CC(C)C)C(=O)NC1C(=O)NC(CC(N)=O)C(=O)NC2C(=O)NC3C(=O)NC(C(=O)NC(C(=O)O)c4cc(O)cc(O)c4-c4cc3ccc4O)C(OC3CC(C)(N)C(O)C(C)O3)c3ccc(cc3)Oc3cc2cc(c3OC2OC(CO)C(O)C(O)C2OC2CC(C)(NCc3ccc(-c4ccccc4)cc3)C(O)C(C)O2)Oc2ccc(cc2)C1O (centres unmarked) [Compound 183] | ≤ 0.06 | ≤ 0.06 | ≤ 0.06 | – | ≤ 0.06 | ≤ 0.06 | ≤ 0.06 | ≤ 0.06 | ≤ 0.06 | ≤ 0.06 | ≤ 0.06 | ≤ 0.06 | 2 (≈ 1.18 µM) | ≤ 0.06 | 0.5 (≈ 0.296 µM) | ≤ 0.06 | ≤ 0.06 | ≤ 0.06 | ≤ 0.06 | 23 | mean geometric MIC, Vancomycin Sensitive Strains [18]: 0.130 µg/mL
6 | CNC(CC(C)C)C(=O)NC1C(=O)NC(CC(N)=O)C(=O)NC2C(=O)NC3C(=O)NC(C(=O)NC(C(=O)O)c4cc(O)cc(O)c4-c4cc3ccc4O)C(OC3CC(C)(N)C(O)C(C)O3)c3ccc(c(Cl)c3)Oc3cc2cc(c3OC2OC(CO)C(O)C(O)C2OC2CC(C)(NCc3ccc(-c4ccc(OC)c(OC)c4)cc3)C(O)C(C)O2)Oc2ccc(cc2Cl)C1O (centres unmarked) [Compound 215] | 2 (≈ 1.1 µM) | 1 (≈ 0.55 µM) | ≤ 0.06 | 2 (≈ 1.1 µM) | 0.5 (≈ 0.275 µM) | 0.5 (≈ 0.275 µM) | 2 (≈ 1.1 µM) | 0.5 (≈ 0.275 µM) | ≤ 0.06 | 0.5 (≈ 0.275 µM) | ≤ 0.06 | ≤ 0.06 | ≤ 0.06 | – | – | – | 2 (≈ 1.1 µM) | 1 (≈ 0.55 µM) | ≤ 0.06 | 2.8 | –
7 | C=CCCCCNC1(C)CC(OC2C(Oc3c4cc5cc3Oc3ccc(cc3Cl)C(OC3CC(C)(N)C(O)C(C)O3)C3NC(=O)C(NC(=O)C5NC(=O)C(CC(N)=O)NC(=O)C(NC(=O)C(CC(C)C)NC)C(O)c5ccc(c(Cl)c5)O4)c4ccc(O)c(c4)-c4c(O)cc(O)cc4C(C(=O)O)NC3=O)OC(CO)C(O)C2O)OC(C)C1O (centres unmarked) [Compound 217] | ≤ 0.06 | 0.125 (≈ 0.0746 µM) | ≤ 0.06 | ≤ 0.06 | – | 1 (≈ 0.597 µM) | ≤ 0.06 | ≤ 0.06 | ≤ 0.06 | ≤ 0.06 | ≤ 0.06 | ≤ 0.06 | 2 (≈ 1.19 µM) | ≤ 0.06 | 8 (≈ 4.78 µM) | 0.5 (≈ 0.299 µM) | 2 (≈ 1.19 µM) | 8 (≈ 4.78 µM) | ≤ 0.06 | 13 | mean geometric MIC, Vancomycin Sensitive Strains [18]: 0.57 µg/mL
8 | CNC(CC(C)C)C(=O)NC1C(=O)NC(CC(N)=O)C(=O)NC2C(=O)NC3C(=O)NC(C(=O)NC(C(=O)O)c4cc(O)cc(O)c4-c4cc3ccc4O)C(OC3CC(C)(N)C(O)C(C)O3)c3ccc(c(Cl)c3)Oc3cc2cc(c3OC2OC(CO)C(O)C(O)C2OC2CC(C)(NCC3CCC(Cc4ccccc4)CC3)C(O)C(C)O2)Oc2ccc(cc2Cl)C1O (centres unmarked) [Compound 241] | – | 1 (≈ 0.562 µM) | ≤ 0.06 | ≤ 0.06 | 0.5 (≈ 0.281 µM) | 1 (≈ 0.562 µM) | 0.5 (≈ 0.281 µM) | ≤ 0.06 | 1 (≈ 0.562 µM) | 0.5 (≈ 0.281 µM) | 1 (≈ 0.562 µM) | ≤ 0.06 | ≤ 0.06 | ≤ 0.06 | ≤ 0.06 | 0.5 (≈ 0.281 µM) | 1 (≈ 0.562 µM) | 1 (≈ 0.562 µM) | ≤ 0.06 | 1.4 | mean geometric MIC, Vancomycin Sensitive Strains [18]: 0.048 µg/mL
